From ChEMBL document CHEMBL5375984, “Development of Ligands for the Super Conserved Orphan G Protein-Coupled Receptor GPR27 with Improved Efficacy and Potency” (J Med Chem, 2023)
One block for each compound: values may come before it.

Legend:
[1] = molecular target: T1, GPR27-V2 (Homo sapiens, UniProt P30518+Q9NS67); assay: Agonist activity at CLuc-tagged human GPR27-V2 expressed in HEK293 cells incubated for 10 mins by beta-arrestin 2 recruitment based firefly luciferase complementation assay
[2] = molecular target: Probable G-protein coupled receptor 27 (Homo sapiens, UniProt Q9NS67); assay: Agonist activity at CLuc-tagged human GPR27 expressed in HEK293 cells incubated for 10 mins by beta-arrestin 2 recruitment based firefly luciferase complementation assay
[3] = molecular target: T1, GPR27-V2; assay: Agonist activity at CLuc-tagged human GPR27-V2 expressed in HEK293 cells incubated overnight by beta-arrestin 2 recruitment based firefly luciferase complementation assay

T1 sequence (P30518 whole entry): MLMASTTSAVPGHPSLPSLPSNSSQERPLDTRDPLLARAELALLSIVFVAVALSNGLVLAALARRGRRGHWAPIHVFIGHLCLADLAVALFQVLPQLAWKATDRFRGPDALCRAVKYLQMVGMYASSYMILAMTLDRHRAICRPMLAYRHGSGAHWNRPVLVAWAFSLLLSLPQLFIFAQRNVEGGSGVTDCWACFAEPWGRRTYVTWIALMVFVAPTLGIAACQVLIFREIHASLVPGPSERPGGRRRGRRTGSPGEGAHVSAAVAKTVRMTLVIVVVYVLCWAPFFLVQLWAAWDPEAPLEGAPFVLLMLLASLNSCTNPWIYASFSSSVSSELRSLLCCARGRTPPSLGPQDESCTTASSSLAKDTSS
T1 sequence (Q9NS67 whole entry): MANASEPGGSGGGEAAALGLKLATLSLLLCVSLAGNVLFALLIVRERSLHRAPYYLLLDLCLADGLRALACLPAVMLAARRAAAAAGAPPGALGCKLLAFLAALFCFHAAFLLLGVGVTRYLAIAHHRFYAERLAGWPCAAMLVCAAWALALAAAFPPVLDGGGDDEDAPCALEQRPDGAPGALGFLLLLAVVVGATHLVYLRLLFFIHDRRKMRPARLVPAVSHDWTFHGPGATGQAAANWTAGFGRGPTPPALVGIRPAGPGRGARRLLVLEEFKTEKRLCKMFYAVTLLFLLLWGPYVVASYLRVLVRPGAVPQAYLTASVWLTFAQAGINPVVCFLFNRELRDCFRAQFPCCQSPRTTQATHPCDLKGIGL
Chain of Probable G-protein coupled receptor 27 (Q9NS67 whole entry): as above

SMILES: O=C(Nc1ccc(S(=O)(=O)Nc2cnc3ccccc3n2)cc1)c1ccc(Cl)cc1Cl
EC50 [1]: > 100 µM

SMILES: O=C(Nc1ccc(S(=O)(=O)Nc2ccccc2)cc1)c1ccc(Cl)cc1Cl
EC50 [2]: 6.61 µM
EC50 [1]: 7.41 µM
EC50 [3]: 0.417 µM

SMILES: O=C(Nc1ccc(S(=O)(=O)Nc2nccs2)cc1)c1ccc(Cl)cc1Cl
EC50 [3]: 0.661 µM

SMILES: CN(C)S(=O)(=O)c1ccc(NC(=O)c2ccc(Cl)cc2Cl)cc1
EC50 [1]: > 100 µM

SMILES: O=C(Nc1ccc(S(=O)(=O)Nc2ccccc2)cc1)c1ccc(F)cc1F
EC50 [2]: 0.447 µM
EC50 [1]: 3.89 µM

SMILES: O=C(Nc1ccc(S(=O)(=O)Nc2ccccc2)cc1)c1ccc(C(F)(F)F)cc1Cl
EC50 [2]: 6.76 µM
EC50 [1]: 3.89 µM

SMILES: CC(=O)NS(=O)(=O)c1ccc(NC(=O)c2ccc(Cl)cc2Cl)cc1
EC50 [1]: > 100 µM

SMILES: O=C(Nc1ccc(S(=O)(=O)Nc2ccccc2)cc1)c1ccc(Br)cc1Br
EC50 [2]: 1.23 µM
EC50 [1]: 3.24 µM

SMILES: CS(=O)(=O)c1ccc(NC(=O)c2ccc(Cl)cc2Cl)cc1
EC50 [1]: 38 µM

SMILES: N#Cc1cc(Cl)c(C(=O)Nc2ccc(S(=O)(=O)Nc3ccccc3)cc2)c(Cl)c1
EC50 [2]: > 31.6 µM

SMILES: Cc1cc(Cl)c(Cl)cc1C(=O)Nc1ccc(S(=O)(=O)Nc2ccccc2)cc1
EC50 [2]: 0.263 µM

SMILES: COc1cc(Cl)ccc1C(=O)Nc1ccc(S(=O)(=O)Nc2ccccc2)cc1
EC50 [2]: 0.204 µM
EC50 [1]: 0.977 µM

SMILES: CNS(=O)(=O)c1ccc(NC(=O)c2ccc(Br)cc2Br)cc1
EC50 [1]: > 100 µM

SMILES: O=C(Nc1ccc(S(=O)(=O)Nc2ccccc2)cc1)c1cc(Cl)c(Cl)cc1Cl
EC50 [2]: 0.589 µM

SMILES: NS(=O)(=O)c1ccc(NC(=O)c2ccc(Br)cc2Br)cc1
EC50 [1]: > 100 µM

SMILES: O=C(Nc1ccc(S(=O)(=O)Nc2ccccc2)cc1)c1ccc(Cl)cc1OC(F)(F)F
EC50 [2]: > 31.6 µM
EC50 [1]: 0.195 µM

SMILES: O=C(Nc1ccc(S(=O)(=O)Nc2ccccc2)cc1)c1ccc(C(F)(F)F)cc1Br
EC50 [2]: 0.245 µM
EC50 [1]: 6.92 µM

SMILES: COc1ccc(C(=O)Nc2ccc(S(=O)(=O)Nc3ccccc3)cc2)c(Cl)c1
EC50 [2]: > 31.6 µM
EC50 [1]: 8.13 µM

SMILES: O=C(Nc1ccc(S(=O)(=O)Nc2ccccc2)cc1)c1ccc(Cl)c(Cl)c1Cl
EC50 [2]: 0.631 µM

SMILES: COc1ccc(C(=O)Nc2ccc(S(=O)(=O)Nc3ccccc3)cc2)c(C)c1
EC50 [2]: > 31.6 µM
EC50 [1]: > 100 µM

SMILES: Cc1cc(C(=O)Nc2ccc(S(=O)(=O)Nc3ccccc3)cc2)c(C)cc1Br
EC50 [2]: 0.126 µM

SMILES: Cc1cc(C(=O)Nc2ccc(S(=O)(=O)Nc3ccccc3)cc2)c(C)cc1Cl
EC50 [2]: 0.275 µM

SMILES: O=C(Nc1ccc(S(=O)(=O)Nc2ccccc2)cc1)c1cc(F)c(Cl)cc1Cl
EC50 [2]: 0.38 µM

More lines, now with the values ahead:

EC50 [1]: > 100 µM
SMILES: Cc1cc(NS(=O)(=O)c2ccc(NC(=O)c3ccc(Cl)cc3Cl)cc2)no1

EC50 [1]: > 100 µM
SMILES: O=C(Nc1ccc(S(=O)(=O)O)cc1)c1ccc(Cl)cc1Cl

EC50 [2]: > 31.6 µM
SMILES: Cc1cc(Cl)c(C(=O)Nc2ccc(S(=O)(=O)Nc3ccccc3)cc2)cc1F

EC50 [2]: 0.562 µM
SMILES: Cc1cc(Br)c(F)cc1C(=O)Nc1ccc(S(=O)(=O)Nc2ccccc2)cc1

EC50 [1]: > 100 µM
SMILES: Cc1nnc(NS(=O)(=O)c2ccc(NC(=O)c3ccc(Cl)cc3Cl)cc2)s1

EC50 [2]: > 31.6 µM
EC50 [1]: 0.55 µM
SMILES: O=C(Nc1ccc(S(=O)(=O)Nc2ccccc2)cc1)c1ccc(C(F)(F)F)cc1C(F)(F)F

EC50 [1]: > 100 µM
SMILES: Cc1onc(NS(=O)(=O)c2ccc(NC(=O)c3ccc(Cl)cc3Cl)cc2)c1C

EC50 [2]: 0.977 µM
EC50 [1]: 5.89 µM
SMILES: N#Cc1ccc(C(=O)Nc2ccc(S(=O)(=O)Nc3ccccc3)cc2)c(Cl)c1

EC50 [2]: 0.372 µM
SMILES: Cc1cc(C(=O)Nc2ccc(S(=O)(=O)Nc3ccccc3)cc2)c(Cl)cc1Cl

EC50 [2]: 0.955 µM
SMILES: O=C(Nc1ccc(S(=O)(=O)Nc2ccccc2)cc1)c1cc2ccccc2cc1Cl

EC50 [2]: > 31.6 µM
SMILES: O=C(Nc1ccc(S(=O)(=O)Nc2ccccc2)cc1)c1c(Cl)cc(Cl)cc1Cl

EC50 [2]: 2.14 µM
SMILES: Cc1cc(C(=O)Nc2ccc(S(=O)(=O)Nc3ccccc3)cc2)c(F)cc1Br

EC50 [1]: > 100 µM
SMILES: O=C(/C=C/c1ccc(Cl)cc1Cl)Nc1ccc(S(=O)(=O)Nc2ccccc2)cc1

EC50 [2]: 0.363 µM
SMILES: Cc1cc(Cl)c(C(=O)Nc2ccc(S(=O)(=O)Nc3ccccc3)cc2)cc1Cl
